Data reported in the supplement of paper PMC10627819.

What was measured:
Assay in all cases: Bliss interaction score (quartile over a dose matrix) (fitness difference); higher = more antagonism (negative = synergy)
S. aureus Newman = system: S. aureus Newman
How it was run: (§1)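 Values were capped at 1 after dividing OD595 at stationary-phase entry by the plate's robust no-drug mean. This ratio is fitness, and single-drug fitness was inferred from the combination data. The Bliss score is observed minus product-expected fitness, given as quartiles over technical, biological and donor/recipient replicates.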

S. pneumoniae D39V = system: S. pneumoniae D39V
How it was run: as §1

B. subtilis 168 = system: B. subtilis 168
How it was run: as §1

S. aureus DSM 20231 = system: S. aureus DSM 20231
How it was run: as §1
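Further: first quartile when negative (synergy) and third quartile when positive (antagonism).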

Row | Structure (SMILES) | Bliss interaction score (S. aureus Newman) | Bliss interaction score (S. pneumoniae D39V) | Bliss interaction score (B. subtilis 168) | Bliss interaction score (S. aureus DSM 20231) | Bliss interaction score (S. aureus Newman; main component drawn) | Bliss interaction score (S. pneumoniae D39V; main component drawn) | Bliss interaction score (B. subtilis 168; main component drawn) | Bliss interaction score (S. aureus DSM 20231; main component drawn)
1 | CN(C)[C@@H]1C(O)=C(C(N)=O)C(=O)[C@@]2(O)C(O)=C3C(=O)c4c(O)ccc(Cl)c4[C@@](C)(O)[C@H]3C[C@@H]12 [Clortetracycline] + CC1=C\[C@@H](O)CC(=O)Cc2nc(co2)C(=O)N2CCC=C2C(=O)O[C@H](C(C)C)[C@H](C)/C=C/C(=O)NC\C=C\1 [Virginiamycin M1] | -0.049 | -0.0413 | 0.0837 | -0.0704 |  |  |  | 
2 | CN(C)c1cc(NC(=O)CNC(C)(C)C)c(O)c2c1C[C@H]1C[C@H]3[C@H](N(C)C)C(O)=C(C(N)=O)C(=O)[C@@]3(O)C(O)=C1C2=O [Tigecycline] + Oc1cc(Cl)ccc1Oc1ccc(Cl)cc1Cl [Triclosan] | 0.0252 | 0.0471 | 0.0719 | 0.101 |  |  |  | 
3 | CC1(C)S[C@@H]2[C@H](NC(=O)Cc3ccccc3)C(=O)N2[C@H]1C(=O)O [PenicillinG] + CO[C@H]1/C=C/O[C@@]2(C)Oc3c(C)c(O)c4c(O)c(c(/C=N/N5CCN(C)CC5)c(O)c4c3C2=O)NC(=O)/C(C)=C\C=C\[C@H](C)[C@H](O)[C@@H](C)[C@@H](O)[C@@H](C)[C@H](OC(C)=O)[C@@H]1C [Rifampicin] | 0.0252 | -0.112 | 0.0761 | 0.036 |  |  |  | 
4 | CC1(C)S[C@@H]2[C@H](NC(=O)Cc3ccccc3)C(=O)N2[C@H]1C(=O)O [PenicillinG] + Oc1cc(Cl)ccc1Oc1ccc(Cl)cc1Cl [Triclosan] | 0.0326 | 0.0767 | 0.0307 | 0.0254 |  |  |  | 
5 | Cc1ncc([N+](=O)[O-])n1CCO [Metronidazole] + CC[C@H]1OC(=O)[C@H](C)C(=O)[C@H](C)[C@@H](O[C@@H]2O[C@H](C)C[C@H](N(C)C)[C@H]2O)[C@](C)(OC)C[C@@H](C)C(=O)[C@H](C)[C@H]2N(CCCCn3cnc(-c4cccnc4)c3)C(=O)O[C@]12C [Telithromycin] | 0.0357 | 0.157 | 0.0709 | 0.0599 |  |  |  | 
6 | N#CC(C#N)=NNc1cccc(Cl)c1 [CCCP] + Cc1ncc([N+](=O)[O-])n1CCO [Metronidazole] | -0.0331 | 0.12 | 0.0615 | 0.0642 |  |  |  | 
7 | CC(=O)Oc1ccccc1C(=O)O [Acetylsalicylicacid] + CCC[C@@H]1C[C@@H](C(=O)N[C@@H]([C@H]2O[C@H](SC)[C@H](O)[C@@H](O)[C@H]2O)[C@@H](C)O)N(C)C1 [Lincomycin] | 0.0556 | 0.0801 | -0.0832 | 0.199 |  |  |  | 
8 | CC(=O)Oc1ccccc1C(=O)O [Acetylsalicylicacid] + CC1=C\[C@@H](O)CC(=O)Cc2nc(co2)C(=O)N2CCC=C2C(=O)O[C@H](C(C)C)[C@H](C)/C=C/C(=O)NC\C=C\1 [Virginiamycin M1] | -0.0537 | -0.0556 | -0.0602 | -0.0657 |  |  |  | 
9 | C[C@H]1c2cccc(O)c2C(=O)C2=C(O)[C@]3(O)C(=O)C(C(N)=O)=C(O)[C@@H](N(C)C)[C@@H]3[C@@H](O)[C@@H]21 [Doxycycline] + CO[C@@]12[C@H](COC(N)=O)C3=C(C(=O)C(C)=C(N)C3=O)N1C[C@@H]1N[C@@H]12 [MitomycinC] | 0.0515 | -0.0943 | 0.0704 | -0.0478 |  |  |  | 
10 | O=C(O)c1cn(C2CC2)c2cc(N3CCNCC3)c(F)cc2c1=O [Ciprofloxacin] + O=C(O)[C@H]1/C(=C/CO)O[C@@H]2CC(=O)N21 [Clavulanic] | 0.18 | -0.0997 | -0.154 | -0.184 |  |  |  | 
11 | N#CC(C#N)=NNc1cccc(Cl)c1 [CCCP] + C[C@H]1c2cccc(O)c2C(=O)C2=C(O)[C@]3(O)C(=O)C(C(N)=O)=C(O)[C@@H](N(C)C)[C@@H]3[C@@H](O)[C@@H]21 [Doxycycline] | 0.0768 | 0.047 | -0.0353 | -0.0215 |  |  |  | 
12 | N#CC(C#N)=NNc1cccc(Cl)c1 [CCCP] + CN(C)[C@@H]1C(O)=C(C(N)=O)C(=O)[C@@]2(O)C(O)=C3C(=O)c4c(O)ccc(Cl)c4[C@@](C)(O)[C@H]3C[C@@H]12 [Clortetracycline] | 0.0865 | -0.0306 | -0.0685 | 0.0445 |  |  |  | 
13 | Cc1ncc([N+](=O)[O-])n1CCO [Metronidazole] + CN[C@H](CC(C)C)C(=O)N[C@H]1C(=O)N[C@@H](CC(N)=O)C(=O)N[C@H]2C(=O)N[C@H]3C(=O)N[C@H](C(=O)N[C@H](C(=O)O)c4cc(O)cc(O)c4-c4cc3ccc4O)[C@H](O[C@H]3C[C@](C)(N)[C@@H](O)[C@H](C)O3)c3ccc(c(Cl)c3)Oc3cc2cc(c3O[C@@H]2O[C@H](CO)[C@@H](O)[C@H](O)[C@H]2O[C@H]2C[C@](C)(NCc3ccc(-c4ccc(Cl)cc4)cc3)[C@@H](O)[C@H](C)O2)Oc2ccc(cc2Cl)[C@H]1O [Oritavancin] | 0.0752 | -0.0396 | -0.0222 | 0.0377 |  |  |  | 
14 | CO/N=C(\C(=O)N[C@@H]1C(=O)N2C(C(=O)O)=C(COC(N)=O)CS[C@H]12)c1ccco1 [Cefuroxime] + O=C(O)c1cn(C2CC2)c2cc(N3CCNCC3)c(F)cc2c1=O [Ciprofloxacin] | -0.0563 | -0.0381 | -0.171 | -0.31 |  |  |  | 
15 | CC(=O)Oc1ccccc1C(=O)O [Acetylsalicylicacid] + CCC(C)C1C(=O)NC(=C)C(=O)NC(C(=O)NC(CSCC(C(=O)N1)NC(=O)/C(=C/C)/NC(=O)C(C(C)CC)N)C(=O)NC2C(SCC(NC(=O)CNC(=O)C3CCCN3C2=O)C(=O)NC(CCCCN)C(=O)NC4C(SCC(NC(=O)CNC(=O)C(NC(=O)C(NC(=O)C(NC(=O)CNC4=O)C)CC(C)C)CCSC)C(=O)NC(CC(=O)N)C(=O)NC(CCSC)C(=O)NC(CCCCN)C(=O)NC5C(SCC6C(=O)NC(C(=O)NC(CSC(C(C(=O)N6)NC(=O)C(NC5=O)C)C)C(=O)NC(CO)C(=O)NC(C(C)CC)C(=O)NC(CC7=CN=CN7)C(=O)NC(C(C)C)C(=O)NC(=C)C(=O)NC(CCCCN)C(=O)O)CC8=CN=CN8)C)C)C)CC(C)C [Nisin] |  |  |  |  | -0.0598 | -0.0424 | -0.0969 | -0.113
16 | CN(C)[C@@H]1C(O)=C(C(N)=O)C(=O)[C@@]2(O)C(O)=C3C(=O)c4c(O)ccc(Cl)c4[C@@](C)(O)[C@H]3C[C@@H]12 [Clortetracycline] + COc1cccc2c1C(=O)c1c(O)c3c(c(O)c1C2=O)C[C@@](O)(C(=O)CO)C[C@@H]3O[C@H]1C[C@H](N)[C@H](O)[C@H](C)O1 [Doxorubicin] | -0.0472 | -0.182 | 0.0883 | 0.0615 |  |  |  | 
17 | CC(=O)Oc1ccccc1C(=O)O [Acetylsalicylicacid] + Cc1cc(NS(=O)(=O)c2ccc(N)cc2)no1 [Sulfamethoxazol] | -0.0624 | -0.0493 | 0.0808 | -0.0892 |  |  |  | 
18 | O=C(O)c1cn(C2CC2)c2cc(N3CCNCC3)c(F)cc2c1=O [Ciprofloxacin] + CC1(C)S[C@@H]2[C@H](NC(=O)Cc3ccccc3)C(=O)N2[C@H]1C(=O)O [PenicillinG] | -0.0565 | 0.0662 | 0.0481 | -0.0624 |  |  |  | 
19 | CN(C)[C@@H]1C(O)=C(C(N)=O)C(=O)[C@@]2(O)C(O)=C3C(=O)c4c(O)ccc(Cl)c4[C@@](C)(O)[C@H]3C[C@@H]12 [Clortetracycline] + CO[C@@H]1[C@@H](OC(N)=O)[C@@H](O)[C@H](Oc2ccc3c(O)c(NC(=O)c4ccc(O)c(CC=C(C)C)c4)c(=O)oc3c2C)OC1(C)C [Novobiocin] | 0.0791 | 0.192 | 0.0909 | 0.104 |  |  |  | 
20 | CO/N=C(\C(=O)N[C@@H]1C(=O)N2C(C(=O)O)=C(COC(C)=O)CS[C@H]12)c1csc(N)n1 [Cefotaxime] + O=C(O)[C@H]1/C(=C/CO)O[C@@H]2CC(=O)N21 [Clavulanic] | 0.279 | -0.0534 | -0.0436 | 0.176 |  |  |  | 
21 | N#CC(C#N)=NNc1cccc(Cl)c1 [CCCP] + Cn1nnc(-c2ccc(-c3ccc(N4C[C@H](CO)OC4=O)cc3F)cn2)n1 [Tedizolid] | 0.104 | 0.044 | -0.0578 | -0.031 |  |  |  | 
22 | CC(=O)Oc1ccccc1C(=O)O [Acetylsalicylicacid] + CO[C@@H]1[C@@H](OC(N)=O)[C@@H](O)[C@H](Oc2ccc3c(O)c(NC(=O)c4ccc(O)c(CC=C(C)C)c4)c(=O)oc3c2C)OC1(C)C [Novobiocin] | -0.0718 | 0.123 | -0.146 | -0.068 |  |  |  | 
23 | CC1(C)S[C@@H]2[C@H](NC(=O)Cc3ccccc3)C(=O)N2[C@H]1C(=O)O [PenicillinG] + CC1=C\[C@@H](O)CC(=O)Cc2nc(co2)C(=O)N2CCC=C2C(=O)O[C@H](C(C)C)[C@H](C)/C=C/C(=O)NC\C=C\1 [Virginiamycin M1] | 0.0409 | 0.099 | 0.0479 | -0.0526 |  |  |  | 
